The results in this text go back to patent US20250163057A1, “DCN-1 MODULATING COMPOUNDS AND METHODS OF USE THEREOF” (Cellarity, Inc., priority 2023, published 2025).

The structures appear in SMILES notation. Where two headings read alike, the source gives them in different places.

Experiment [1] deals with fetal hemoglobin protein. The experiment can be described thus: HbF HPLC Cell Culture Assay. The format is cell-based. The conditions noted are these: for EC50: 336 h, HbF induction, Day 14 of culture; for Hemoglobin HPLC Ymax obs (%): relative to a control compound. The essentials: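 Cells were expanded in SFEM with CC100 and TPO, then differentiated through three erythroid media phases (EPO 2.5 U/ml, holo-transferrin, insulin, plus SCF, and IL-3 in phase 1). Compound was re-added at each passage (treatment day, days 0, 3, 5, 7, 10, 12). Fetal hemoglobin was quantified by HPLC on pellets from terminal day 14.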

In experiment [2] the target is DCN1 (DCUND1) protein PONY domain (Homo sapiens (Human), UniProt Q96GG9). The experiment can be described thus: TR-FRET assay, DCN1 binding with FAM-labeled probe. The essentials:
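Tb-DCN1 PONY domain (E. coli, biotin/streptavidin-Tb); FAM-labelled non-covalent inhibitor probe; TritonX buffer, 200 mM NaCl; 5 nM DCN1 + 20 nM probe or 0.31 nM DCN1 + 900 nM total probe; 0.1% DMSO; TR-FRET read 1, 5, 24 hrs.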

The mark [3] stands for this setting: 24 hr after treatment with compound, read-out: TR FRET IC50 24 hr.
The mark [4] stands for this setting: read-out: TR FRET IC50 1 hr, 1 hr after treatment with compound.
The mark [5] stands for this setting: TR FRET IC50 1 hr (nM), 1 hr after treatment with compound.

Broadly, the EC50 is the concentration giving half of the maximal effect. A higher EC50 goes with lower potency in that assay. In general, IC50 refers to the concentration at which inhibition is half-maximal.

Sequence of DCN1 (DCUND1) protein PONY domain (Q96GG9 60-248): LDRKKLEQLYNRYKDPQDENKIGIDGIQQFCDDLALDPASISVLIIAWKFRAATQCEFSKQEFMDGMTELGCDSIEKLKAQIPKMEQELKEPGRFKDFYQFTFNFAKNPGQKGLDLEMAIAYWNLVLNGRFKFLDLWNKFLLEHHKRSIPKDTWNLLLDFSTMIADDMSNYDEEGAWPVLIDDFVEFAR

For the compound `CCN1C(=O)[C@@H](NC(=O)c2cccc(C(F)(F)F)c2)[C@@H](C2CC2)c2c(C(=O)N3C[C@H](OC)C[C@H]3C#N)nn(C3CCOCC3)c21` [Compound I-377], in experiment [1], the concentration for a half-maximal effect (EC50) fell in the range of 50 to 200 nM; the “Hemoglobin HPLC Ymax obs (%)” value is “++ (Hemoglobin HPLC Ymax greater than 65.0 and less than or equal to 100.0)”. Also, the IC50 in experiment [2] (setting [3]) is at most 200 nM. Also, the IC50 in experiment [2] (setting [4]) was at most 200 nM.
Turning to `CCN1C(=O)[C@@H](NC(=O)c2cccc(C(F)(F)F)c2)[C@@H](c2ccc(F)cc2)c2c(CN(C)C#N)nn(-c3ccccc3)c21` [Compound I-92], in experiment [1], the EC50 is over 200 nM; the “Hemoglobin HPLC Ymax obs (%)” value was “+ (Hemoglobin HPLC Ymax greater than or equal to 0.0 and less than or equal to 65.0)”. For the same compound, the IC50 in experiment [2] (setting [3]) is at most 200 nM. Moreover, the IC50 in experiment [2] (setting [4]) is 200 to 1000 nM.
Take `CCN1C(=O)[C@@H](NC(=O)c2cccc(C(F)(F)F)c2)[C@@H](c2ccc(F)cc2)c2c(C(=O)N3CS(=O)(=O)C[C@H]3C#N)nn(C3CCOCC3)c21` (mixture of isomers) [Compound I-661, N-((4S,5S)-3-(4-cyano-1,1-dioxidothiazolidine-3-carbonyl)-7-ethyl-4-(4-fluorophenyl)-6-oxo-1-(tetrahydro-2H-pyran-4-yl)-4,5,6,7-tetrahydro-1H-pyrazolo[3,4-b]pyridin-5-yl)-3-(trifluoromethyl)benzamide]: the EC50 in experiment [1] was over 200 nM. For the same compound, the “Hemoglobin HPLC Ymax obs (%)” value in experiment [1] is “++ (Hemoglobin HPLC Ymax greater than 65.0 and less than or equal to 100.0)”. Besides, the IC50 in experiment [2] (setting [3]) and in experiment [2] (setting [4]) was at most 200 nM throughout.
`CCN1C(=O)[C@@H](NC(=O)c2cccc(C(F)(F)F)c2)[C@@H](C2CC2)c2c(C(=O)N3[C@H](C#N)C[C@H]4C[C@H]43)nn(C3CCOCC3)c21` [Compound I-256, N-((4S,5S)-3-((1R,3S,5R)-3-cyano-2-azabicyclo[3.1.0]hexane-2-carbonyl)-4-cyclopropyl-7-ethyl-6-oxo-1-(tetrahydro-2H-pyran-4-yl)-4,5,6,7-tetrahydro-1H-pyrazolo[3,4-b]pyridin-5-yl)-3-(trifluoromethyl)benzamide]: in experiment [1], the EC50 fell in the range of 50 to 200 nM. For the same compound, in experiment [1], the “Hemoglobin HPLC Ymax obs (%)” value is “++ (Hemoglobin HPLC Ymax greater than 65.0 and less than or equal to 100.0)”. Also, the IC50 in experiment [2] (setting [3]) and in experiment [2] (setting [4]) was at most 200 nM throughout.
As to `CCN1C(=O)[C@@H](NC(=O)c2cccc(C(F)(F)F)c2)[C@@H](C2CC2)c2c(C(=O)N(C)[C@H](C)C#N)nn(C3CCOCC3)c21` [Compound I-422], in experiment [1], the EC50 is 50 to 200 nM; the “Hemoglobin HPLC Ymax obs (%)” value was “++ (Hemoglobin HPLC Ymax greater than 65.0 and less than or equal to 100.0)”. Further, the IC50 in experiment [2] (setting [3]) is at most 200 nM. Besides, the concentration for half-maximal inhibition (IC50) in experiment [2] (setting [4]) is at most 200 nM.
`CCN1C(=O)[C@@H](NC(=O)c2cccc(C(F)(F)F)c2)[C@@H](C2CCC2)c2c(C(=O)N3CCC[C@H]3C#N)nn(C3CCOCC3)c21` [Compound I-692]: in experiment [1], the EC50 was over 200 nM; the “Hemoglobin HPLC Ymax obs (%)” value was “++ (Hemoglobin HPLC Ymax greater than 65.0 and less than or equal to 100.0)”. In experiment [2] (setting [3]), the IC50 was at most 200 nM. Besides, the IC50 in experiment [2] (setting [5]) was in the range of 200 to 1000 nM.
For `CCN1C(=O)[C@@H](NC(=O)c2cccc(C(F)(F)F)c2)[C@@H](c2ccc(F)cc2)c2c(C(=O)N3CCC[C@H]3C#N)nn(C3CCOCC3)c21` [Compound I-350], in experiment [1], the EC50 is at most 50 nM; the “Hemoglobin HPLC Ymax obs (%)” value is “++ (Hemoglobin HPLC Ymax greater than 65.0 and less than or equal to 100.0)”. The IC50 in experiment [2] (setting [3]) was at most 200 nM. Further, the IC50 in experiment [2] (setting [4]) is at most 200 nM.
As for `CCN1C(=O)[C@@H](NC(=O)c2cccc(C(F)(F)F)c2)[C@@H](c2ccc(F)cc2)c2c(C(=O)NC3(C#N)CC3)nn(-c3ccccc3)c21` [Compound I-112], in experiment [1], the EC50 is over 200 nM and the “Hemoglobin HPLC Ymax obs (%)” value was “+++ (Hemoglobin HPLC Ymax greater than 100.0)”. Also, in experiment [2] (setting [3]), the 50% inhibitory concentration (IC50) was in the range of 200 to 1000 nM. In experiment [2] (setting [5]), the IC50 lay in the range of 1000 to 3000 nM.
With `CCN1C(=O)[C@@H](NC(=O)c2cccc(C(F)(F)F)c2)[C@@H](c2ccc(F)cc2)c2c(CNC#N)nn(-c3ccccc3)c21` [Compound I-140, N-[(4S, 5S)-3-[(cyanoamino)methyl]-7-ethyl-4-(4-fluorophenyl)-6-oxo-1-phenyl-4,5-dihydropyrazolo[3,4-b]pyridine-5-yl]-3-(trifluoromethyl) benzamide], in experiment [1], the EC50 is over 200 nM; the “Hemoglobin HPLC Ymax obs (%)” value is “+ (Hemoglobin HPLC Ymax greater than or equal to 0.0 and less than or equal to 65.0)”. In addition, the IC50 in experiment [2] (setting [3]) was at most 200 nM. Moreover, the IC50 in experiment [2] (setting [4]) is at most 200 nM.
Consider `CCN1C(=O)[C@@H](NC(=O)c2cccc(C(F)(F)F)c2)[C@@H](C2CC2)c2c(C(=O)N3CC[C@H](OC)[C@H]3C#N)nn(C3CCOCC3)c21` [Compound I-418], for which the EC50 in experiment [1] was at most 50 nM. In experiment [1], the “Hemoglobin HPLC Ymax obs (%)” value was “+++ (Hemoglobin HPLC Ymax greater than 100.0)”. Further, the IC50 in experiment [2] (setting [3]) and in experiment [2] (setting [4]) was at most 200 nM throughout.
For the compound `CCN1C(=O)[C@@H](NC(=O)c2cccc(C(F)(F)F)c2)[C@@H](C2CC2)c2c(C(=O)N3C[C@H](F)C[C@H]3C#N)nn(C3CCOCC3)c21` [Compound I-372], in experiment [1], the EC50 was 50 to 200 nM; the “Hemoglobin HPLC Ymax obs (%)” value was “++ (Hemoglobin HPLC Ymax greater than 65.0 and less than or equal to 100.0)”. Further, the IC50 in experiment [2] (setting [3]) was at most 200 nM. Further, the IC50 in experiment [2] (setting [4]) is at most 200 nM.
